In data set [1] the target is Tyrosine-protein kinase Lck (Homo sapiens) (UniProt P06239). As to the kind of experiment: Inhibition of LCK (unknown origin) at 10 uM assessed as residual enzyme activity.
For a further data set, the system named is MDA-MB-231. Nature of the data set: Cytotoxicity against human MDA-MB-231 cells assessed as cell viability at 1 uM after 24 hrs by WST1 assay. The data set is classed as functional. As to conditions: MDA-MB-231, 24 h, read-out: Activity. On the technique in general: Tetrazolium assays rely on reduction of a dye to a coloured formazan, in cell work by metabolically active cells.

Data set [2] deals with Tyrosine-protein kinase Lyn (Homo sapiens) (UniProt P07948). As to the kind of experiment: Inhibition of LYN (unknown origin) at 10 uM assessed as residual enzyme activity.
In data set [3] the target is Tyrosine-protein kinase ABL1 (Homo sapiens) (UniProt P00519). Nature of the data set: Inhibition of ABL1 (unknown origin) at 10 uM assessed as residual enzyme activity.
Tyrosine-protein kinase ABL1 (Homo sapiens), sequence (P00519 whole entry): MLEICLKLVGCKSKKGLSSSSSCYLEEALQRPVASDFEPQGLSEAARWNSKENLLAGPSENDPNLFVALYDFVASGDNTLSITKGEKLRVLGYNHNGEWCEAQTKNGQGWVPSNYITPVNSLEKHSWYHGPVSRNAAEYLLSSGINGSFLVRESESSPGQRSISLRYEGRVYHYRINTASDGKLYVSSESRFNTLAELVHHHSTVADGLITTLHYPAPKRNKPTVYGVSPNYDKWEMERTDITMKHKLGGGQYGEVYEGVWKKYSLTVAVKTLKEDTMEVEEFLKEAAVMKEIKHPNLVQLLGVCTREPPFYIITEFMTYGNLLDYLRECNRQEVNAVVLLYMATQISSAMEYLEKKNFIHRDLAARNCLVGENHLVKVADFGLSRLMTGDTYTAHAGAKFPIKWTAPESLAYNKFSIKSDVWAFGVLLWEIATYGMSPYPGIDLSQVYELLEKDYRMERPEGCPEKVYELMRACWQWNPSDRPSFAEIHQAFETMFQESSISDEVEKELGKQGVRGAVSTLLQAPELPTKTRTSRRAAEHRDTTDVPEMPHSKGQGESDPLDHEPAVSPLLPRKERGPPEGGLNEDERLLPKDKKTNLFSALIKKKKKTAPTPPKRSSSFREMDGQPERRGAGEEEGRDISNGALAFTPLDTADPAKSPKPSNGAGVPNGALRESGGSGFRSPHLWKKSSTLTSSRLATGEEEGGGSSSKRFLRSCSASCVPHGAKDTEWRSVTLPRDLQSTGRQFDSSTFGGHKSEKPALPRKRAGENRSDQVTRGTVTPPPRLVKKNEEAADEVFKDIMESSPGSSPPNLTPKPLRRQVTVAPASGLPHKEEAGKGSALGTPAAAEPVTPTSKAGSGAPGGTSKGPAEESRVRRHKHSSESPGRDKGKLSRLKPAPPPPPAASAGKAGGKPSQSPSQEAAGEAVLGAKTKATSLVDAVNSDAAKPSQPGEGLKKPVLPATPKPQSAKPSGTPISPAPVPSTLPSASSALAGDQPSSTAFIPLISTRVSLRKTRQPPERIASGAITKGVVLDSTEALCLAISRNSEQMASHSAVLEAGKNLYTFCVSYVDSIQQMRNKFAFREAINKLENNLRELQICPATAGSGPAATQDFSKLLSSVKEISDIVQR
Data set [4] addresses Insulin receptor (Homo sapiens) (UniProt P06213). Nature of the data set: Inhibition of IR (unknown origin) at 10 uM assessed as residual enzyme activity.
For data set [5], the target named is Aurora kinase A (Homo sapiens) (UniProt O14965). As to the kind of experiment: Inhibition of Aurora A (unknown origin) at 10 uM assessed as residual enzyme activity.
Aurora kinase A (Homo sapiens), sequence (O14965 whole entry): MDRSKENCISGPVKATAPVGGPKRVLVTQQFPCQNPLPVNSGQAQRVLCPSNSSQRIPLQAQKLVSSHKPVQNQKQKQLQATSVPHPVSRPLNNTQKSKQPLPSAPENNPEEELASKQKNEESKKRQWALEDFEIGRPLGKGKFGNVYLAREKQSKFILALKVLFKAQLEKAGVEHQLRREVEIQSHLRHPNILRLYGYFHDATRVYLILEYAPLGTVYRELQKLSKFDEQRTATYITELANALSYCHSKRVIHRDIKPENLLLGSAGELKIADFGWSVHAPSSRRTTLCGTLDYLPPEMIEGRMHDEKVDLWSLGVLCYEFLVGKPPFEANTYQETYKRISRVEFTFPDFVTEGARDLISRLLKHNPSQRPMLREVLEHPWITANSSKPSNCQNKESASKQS
Data set [6] deals with Vascular endothelial growth factor receptor 1 (Homo sapiens) (UniProt P17948). Nature of the data set: Inhibition of VEGFR1 (unknown origin) at 10 uM assessed as residual enzyme activity.
Vascular endothelial growth factor receptor 1 (Homo sapiens), sequence (P17948 whole entry): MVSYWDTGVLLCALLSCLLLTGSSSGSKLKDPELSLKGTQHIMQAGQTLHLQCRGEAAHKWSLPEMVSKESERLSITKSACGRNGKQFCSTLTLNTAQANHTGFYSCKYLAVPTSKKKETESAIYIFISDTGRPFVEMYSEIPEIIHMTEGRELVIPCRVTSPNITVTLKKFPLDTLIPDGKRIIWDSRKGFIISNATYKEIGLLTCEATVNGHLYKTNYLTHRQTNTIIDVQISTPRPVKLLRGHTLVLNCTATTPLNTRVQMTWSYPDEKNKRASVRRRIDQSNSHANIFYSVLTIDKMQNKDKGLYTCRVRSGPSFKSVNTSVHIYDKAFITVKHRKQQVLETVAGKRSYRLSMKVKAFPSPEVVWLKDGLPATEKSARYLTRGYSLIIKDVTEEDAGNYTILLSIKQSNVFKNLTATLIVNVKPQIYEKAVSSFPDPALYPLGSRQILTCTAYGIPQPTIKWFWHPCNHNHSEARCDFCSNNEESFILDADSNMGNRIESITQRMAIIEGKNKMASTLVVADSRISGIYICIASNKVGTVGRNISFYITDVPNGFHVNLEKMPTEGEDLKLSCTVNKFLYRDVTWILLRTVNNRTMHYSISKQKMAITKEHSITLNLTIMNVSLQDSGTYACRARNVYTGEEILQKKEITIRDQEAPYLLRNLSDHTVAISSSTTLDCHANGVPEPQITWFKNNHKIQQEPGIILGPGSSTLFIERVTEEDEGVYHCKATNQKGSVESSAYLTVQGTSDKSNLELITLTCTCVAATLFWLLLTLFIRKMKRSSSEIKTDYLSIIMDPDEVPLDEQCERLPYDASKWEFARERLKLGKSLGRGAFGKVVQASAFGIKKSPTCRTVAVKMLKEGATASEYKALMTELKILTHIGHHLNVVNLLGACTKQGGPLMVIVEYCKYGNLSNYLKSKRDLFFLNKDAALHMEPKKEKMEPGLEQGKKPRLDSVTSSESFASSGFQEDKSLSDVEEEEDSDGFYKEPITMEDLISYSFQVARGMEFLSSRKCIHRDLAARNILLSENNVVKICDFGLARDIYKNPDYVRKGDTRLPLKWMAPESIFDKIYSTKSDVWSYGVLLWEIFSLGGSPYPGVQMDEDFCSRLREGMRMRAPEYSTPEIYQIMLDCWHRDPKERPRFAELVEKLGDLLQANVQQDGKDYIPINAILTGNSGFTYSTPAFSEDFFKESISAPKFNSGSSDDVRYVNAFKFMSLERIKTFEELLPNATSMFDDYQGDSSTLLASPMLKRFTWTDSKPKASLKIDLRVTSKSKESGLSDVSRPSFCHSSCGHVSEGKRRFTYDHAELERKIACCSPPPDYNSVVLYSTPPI
A further data set concerns MV4-11. Nature of the data set: Cytotoxicity against human MV4-11 cells assessed as cell growth inhibition after 24 hrs by WST1 assay. In kind it is functional, cell-based.
For data set [7], the target named is Receptor-type tyrosine-protein kinase FLT3 (Homo sapiens) (UniProt P36888). As to the kind of experiment: Inhibition of FLT3 (unknown origin) at 10 uM assessed as residual enzyme activity.
Receptor-type tyrosine-protein kinase FLT3 (Homo sapiens), sequence (P36888 whole entry): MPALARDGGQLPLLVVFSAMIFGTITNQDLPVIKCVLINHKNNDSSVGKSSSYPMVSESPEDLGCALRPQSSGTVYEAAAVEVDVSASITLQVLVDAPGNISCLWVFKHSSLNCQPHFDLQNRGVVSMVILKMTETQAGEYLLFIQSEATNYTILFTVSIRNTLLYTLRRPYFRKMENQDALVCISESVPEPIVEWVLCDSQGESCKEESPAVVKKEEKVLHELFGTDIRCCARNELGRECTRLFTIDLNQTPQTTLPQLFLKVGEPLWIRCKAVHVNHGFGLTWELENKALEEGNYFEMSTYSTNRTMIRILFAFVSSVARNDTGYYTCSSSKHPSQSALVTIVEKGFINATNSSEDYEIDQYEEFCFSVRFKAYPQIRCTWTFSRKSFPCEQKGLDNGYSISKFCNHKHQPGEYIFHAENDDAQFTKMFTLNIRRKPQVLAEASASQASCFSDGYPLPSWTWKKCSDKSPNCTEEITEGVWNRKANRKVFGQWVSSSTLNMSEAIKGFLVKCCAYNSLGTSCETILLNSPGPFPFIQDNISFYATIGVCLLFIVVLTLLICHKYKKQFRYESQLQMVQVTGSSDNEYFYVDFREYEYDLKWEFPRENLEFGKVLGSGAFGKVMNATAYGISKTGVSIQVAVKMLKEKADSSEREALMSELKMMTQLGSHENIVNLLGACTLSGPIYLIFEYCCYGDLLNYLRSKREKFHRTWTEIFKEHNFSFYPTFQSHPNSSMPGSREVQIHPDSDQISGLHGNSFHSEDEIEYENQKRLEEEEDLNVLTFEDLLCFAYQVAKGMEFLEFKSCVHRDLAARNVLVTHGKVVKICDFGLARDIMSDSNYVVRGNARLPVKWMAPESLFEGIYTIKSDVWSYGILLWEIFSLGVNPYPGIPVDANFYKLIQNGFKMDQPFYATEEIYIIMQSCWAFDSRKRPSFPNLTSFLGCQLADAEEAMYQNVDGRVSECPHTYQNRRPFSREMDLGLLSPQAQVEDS
The nature of data set [8]: Cytotoxicity against rat L6 cells assessed as cell viability at 1 uM after 24 hrs by WST1 assay. In kind it is cell-based. Particulars: read-out: Activity.
The target of data set [9] is Serine/threonine-protein kinase A-Raf (Homo sapiens) (UniProt P10398). Nature of the data set: Inhibition of ARAF (unknown origin) at 10 uM assessed as residual enzyme activity.
Serine/threonine-protein kinase A-Raf (Homo sapiens), sequence (P10398 whole entry): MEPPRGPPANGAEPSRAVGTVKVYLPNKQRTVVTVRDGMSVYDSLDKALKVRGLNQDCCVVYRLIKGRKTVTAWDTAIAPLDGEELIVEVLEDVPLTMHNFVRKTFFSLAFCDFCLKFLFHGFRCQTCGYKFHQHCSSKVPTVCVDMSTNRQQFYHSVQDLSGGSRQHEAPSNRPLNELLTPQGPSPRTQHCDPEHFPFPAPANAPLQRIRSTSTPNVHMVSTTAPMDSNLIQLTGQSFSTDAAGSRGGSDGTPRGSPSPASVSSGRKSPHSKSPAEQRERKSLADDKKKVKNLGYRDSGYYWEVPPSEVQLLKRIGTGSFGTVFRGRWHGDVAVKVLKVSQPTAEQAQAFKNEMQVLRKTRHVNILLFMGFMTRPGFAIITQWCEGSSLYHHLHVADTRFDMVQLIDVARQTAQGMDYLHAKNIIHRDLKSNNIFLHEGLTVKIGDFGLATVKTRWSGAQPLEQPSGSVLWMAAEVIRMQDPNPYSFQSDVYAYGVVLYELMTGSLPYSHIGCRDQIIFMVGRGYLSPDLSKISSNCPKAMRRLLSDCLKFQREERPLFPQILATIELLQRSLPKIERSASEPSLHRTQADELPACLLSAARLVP
Data set [10] concerns the target Receptor-type tyrosine-protein kinase FLT3 (Homo sapiens) (UniProt P36888). As to the kind of experiment: Inhibition of FLT3 in human MV4-11 cells assessed as reduction in STAT5 phosphorylation after 12 hrs by Western blot method. In kind it is cell-based. (In general: A western blot detects proteins with antibodies after separation by electrophoresis.)
In the next data set the test system is HL-60. Nature of the data set: Inhibition of ERK phosphorylation in human HL60 cells at 0.1 to 10 uM after 12 hrs by Western blot method. The data set is classed as cell-based.
In data set [11] the test system is RAF proto-oncogene serine/threonine-protein kinase. Nature of the data set: Inhibition of Raf1 (unknown origin) at 10 uM assessed as residual enzyme activity. As to conditions: Homo sapiens.
The next data set deals with MCF7. Nature of the data set: Cytotoxicity against human MCF7 cells assessed as cell viability at 1 uM after 24 hrs by WST1 assay. As to conditions: MCF7, 24 h, read-out: Activity. The data set is classed as functional.
Data set [12] deals with Proto-oncogene tyrosine-protein kinase receptor Ret (Homo sapiens) (UniProt P07949). Nature of the data set: Inhibition of RET (unknown origin) at 10 uM assessed as residual enzyme activity.
Data set [13] concerns the target Macrophage colony-stimulating factor 1 receptor (Homo sapiens) (UniProt P07333). Nature of the data set: Inhibition of FMS (unknown origin) at 10 uM assessed as residual enzyme activity.
The target of data set [14] is Epidermal growth factor receptor (Homo sapiens) (UniProt P00533). As to the kind of experiment: Inhibition of EGFR (unknown origin) at 10 uM assessed as residual enzyme activity.
Data set [15] addresses Receptor-type tyrosine-protein kinase FLT3 (Homo sapiens) (UniProt P36888). As to the kind of experiment: Inhibition of FLT3 phosphorylation in human MV4-11 cells after 4 hrs by Western blot method. The data set is classed as cell-based.
Data set [16] in a line: Cytotoxicity against mouse NIH/3T3 cells assessed as cell viability at 1 uM after 24 hrs by WST1 assay. Particulars: read-out: Activity. The data set is classed as cell-based, NIH3T3.

Structures are written as SMILES. Calls of active or inactive are those of the source. The rule behind the calls is not given here.

Tyrosine-protein kinase Lck (Homo sapiens), sequence (P06239 2-509 limits assumed): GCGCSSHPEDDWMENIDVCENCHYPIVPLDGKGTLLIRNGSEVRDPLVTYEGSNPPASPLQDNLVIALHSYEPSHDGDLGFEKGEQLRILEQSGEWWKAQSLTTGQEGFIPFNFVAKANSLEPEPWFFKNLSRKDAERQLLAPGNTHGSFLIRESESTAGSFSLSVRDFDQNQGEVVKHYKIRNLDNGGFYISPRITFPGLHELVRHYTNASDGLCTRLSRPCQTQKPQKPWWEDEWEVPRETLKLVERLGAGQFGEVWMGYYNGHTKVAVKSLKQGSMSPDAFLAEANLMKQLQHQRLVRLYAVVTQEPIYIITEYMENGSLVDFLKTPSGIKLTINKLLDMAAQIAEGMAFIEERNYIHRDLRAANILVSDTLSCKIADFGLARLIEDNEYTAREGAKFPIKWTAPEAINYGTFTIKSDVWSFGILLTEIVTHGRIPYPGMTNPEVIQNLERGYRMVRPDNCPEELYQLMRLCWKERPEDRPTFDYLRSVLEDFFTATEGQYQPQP

Turning to `COc1ccc(-c2n[nH]c3ncc(-c4ccc(Cl)cc4N)cc23)cc1`, the Activity stood at 95.2% in data set [1]; 86.6% in [2]; 88.9% in data set [3]; 95% in [4]; 87.7% in data set [5]; 90% in data set [6]. In addition, the Activity stood at 9.5% in data set [7]; 77% in data set [9]; 94.9% in data set [11]; 83.3% in [12]; 102% in data set [13]; 91.2% in data set [14]. Besides, the viability at 1 µM in the data set on MDA-MB-231 came to 84%; with MCF7, 86%. Also, the “growth inhibition (GI)” value in the data set on MV4-11 was “Dose-dependent effect”. Further, in the data set with MV4-11 (MV4-11, 24 h), the IC50 (as a rule, the point on the concentration scale where inhibition reaches its midpoint) was found to be 592 nM. Further, the results for the viability at 24 h, 1 µM in [8] and in data set [16] were 107% and 106%, respectively. The inhibition entry in data set [10] was “Dose-dependent effect”. Moreover, in the data set on HL-60, the inhibition result was “inactive”. Further, the inhibition entry in data set [15] is “Active”.

These data come from ChEMBL document CHEMBL3217737, “Discovery of a highly selective FLT3 kinase inhibitor from phenotypic cell viability profiling” (Medchemcomm, 2013).
